{"source": "patent EP1542016A1", "about": "“PUMA, phosphorylated p53 and p38 map kinase as markers for HIV-1-induced apoptosis in circulating T cells of infected patient” (Institut Gustave Roussy, priority 2003, dated 2005)", "key": {"Jurkat cells": {"system": "Jurkat cells", "experiment": "Apoptosis and Puma induction by recombinant gp120 protein in Jurkat cells", "assay_type": "cell-based", "conditions": "four days, gp120 500 ng/ml, cyclic pifithrin-α 10 µM, Fig. 8E", "method": "Figure 8D. Induction of Puma by recombinant gp120 protein in Jurkat cells (as in figure 8B).\nFigure 8E. Effect of cyclic pifithrin-alpha. Jurkat cells were treated for four days with gp120 protein (500 ng/ml) and or cyclic pifithrin-α (10 µM), followed by determination of Puma expression.\n(§1) HeLa cells stably transfected with the Env gene of HIV-1 LAI (HeLa Env) and HeLa cells transfected with CD4 (HeLa CD4) were cocultured at a 1:1 ratio (6), in DMEM medium supplemented with 10 % FCS, L-glutamine, in the absence or presence of roscovitin (1 µM), rapamycin (1 µM, Sigma), cyclic pifithrin-α (10 µM), MG132 (5 µM, Calbiochem), the NF-κB-inhibitory peptide SN50, or its negative control SN50M (20 µM, Biomol). HeLa/U937 cell co-cultures were performed at different ratios (6). U937 or Jurkat cells were cultured with recombinant gp120 protein (500 ng/ml)."}, "U937 cells": {"system": "U937 cells", "experiment": "Induction of Puma in U937 cells co-cultured with HeLa Env cells", "assay_type": "cell-based", "design": "dose or concentration left out as unconfirmed", "conditions": "36 hours, Fig. 8A", "method": "Figure 8A. Induction of Puma in U937 cells co-cultured with HeLa Env cells. U937 cells were mixed at different ratios with HeLa Env cells, just before the preparation of cell lysates for immunoblot detection of Puma (Control) or coculture for 36 hours, in the absence or presence of the p53 inhibitor cyclic pifithrin α […]. The percentage of dead U937 cells was determined by trypan blue exclusion.\nas §1\nProtein samples were prepared from HeLa Env and HeLa CD4 single cells mixed at a 1:1 ratio in lysis buffer (single cells control) or from HeLa Env/CD4 syncytia. Proteins samples from HeLa Env and U937 mixed at different ratios were also prepared and subjected to immunoblot analysis. […]"}, "Env-induced syncytia": {"system": "Env-induced syncytia", "conditions": "cited from earlier work"}}}
{"compound": "Cc1ccc(-c2cn3c4c(sc3n2)CCCC4)cc1", "note": "[pifithrin-α, cyclic pifithrin-α]", "values": [{"measurement": "gp120-induced apoptosis and Puma expression", "setting": "Jurkat cells", "value": "strongly inhibited"}, {"measurement": "upregulation of Puma", "setting": "U937 cells", "value": "not inhibited"}, {"measurement": "syncytium-dependent cell death", "setting": "Env-induced syncytia; reference (5)", "value": "blocked"}, {"measurement": "Env-induced upregulation of Bax", "setting": "Env-induced syncytia; references (5, 7)", "value": "prevents"}, {"measurement": "syncytial cell death", "setting": "Env-induced syncytia; references (5, 7)", "value": "retards"}]}
